Experimental data as given in PubChem BioAssay (NCI).
Values joined by “and” are separate entries in the source; they are usually repeats but may differ in a detail not shown here. Equal entries are not always repeated.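 In this assay, cells in 96-well plates receive the compound at five concentrations for 48 hours. Endpoints are linearly interpolated between the surrounding concentrations. At the GI50, growth is halved. TGI denotes the concentration required for complete inhibition of growth.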

What was measured:
Assay in all cases: DTP human tumour cell line panel, 48 h
[1] = system: NCI-H23 lung
[2] = system: SF-268 CNS
[3] = system: SK-OV-3 ovarian
[4] = system: OVCAR-5 ovarian
[5] = system: UO-31 renal
[6] = system: SK-MEL-5 melanoma
[7] = system: MALME-3M melanoma
[8] = system: HL-60(TB) leukemia
[9] = system: K-562 leukemia
[10] = system: CCRF-CEM leukemia

SMILES | GI50 [1] [µM] | TGI [1] | GI50 [2] [µM] | TGI [2] [µM] | GI50 [3] [µM] | TGI [3] [µM] | GI50 [4] [µM] | TGI [4] | GI50 [5] [µM] | TGI [5] [µM] | GI50 [6] [µM] | TGI [6] [µM] | GI50 [7] [µM] | TGI [7] [µM] | GI50 [8] [µM] | TGI [8] [µM] | GI50 [9] [µM] | TGI [9] [µM] | GI50 [10] [µM] | TGI [10] [µM]
CCC(c1cccc(O)c1)C(CC)c1cccc(O)c1 (stereo unspecified) | 4.08 | 16.6 µM | 5.18 | 20.3 | 2.76 | 11.1 | 12 | 24.3 µM | 4.23 | 17.8 | 1.41 | 3.91 | 2.1 | 20 |  |  |  |  |  | 
O=C([CH-]C(=O)C(F)(F)F)c1ccccc1.O=C([CH-]C(=O)C(F)(F)F)c1ccccc1.O=C([CH-]C(=O)C(F)(F)F)c1ccccc1.O=C([CH-]C(=O)C(F)(F)F)c1ccccc1.[Eu+3].c1ccncc1 | 3.7 | 19.5 µM | 6.21 | 59.7 |  |  | 41 | > 100 µM |  |  | 11.2 | > 100 |  |  | 3.69 | 13.8 | 4.66 | 83 | 2.64 | 32.7
CCN(CC)c1ccc2c(c1)Nc1cc(=C(C#N)C#N)c3ccccc3c1=N2 |  | > 100 µM |  | > 100 |  | > 100 |  | > 100 µM |  | > 100 |  | > 100 |  | > 100 |  | > 100 |  | > 100 |  | 
C/C(=N\NC(N)=S)c1nc2ccc(Cl)cc2[nH]1 | 5.51 | 13.7 µM | 2.03 | 11.3 | 2.31 | 9.19 | 5.71 | 18.1 µM | 0.3 | 3.27 | 2.7 | 22.4 |  |  | 1.55 | 19.9 | 2.37 | > 50 | 2.11 | > 50
COc1ccc(Cn2c(Cl)c(/C=C3/C(=O)Nc4ccccc43)c3cc(OC)c(C)cc32)cc1 | 4.78 | > 100 µM | 8.94 | > 100 | 3.56 | > 100 | 6.06 | > 100 µM | 5.82 | > 100 | 2.44 | 16 | 9.44 | > 100 | 4.05 | > 100 |  |  | 4.94 | > 100
O=C(OC[C@H]1O[C@@H](OC(=O)c2cc(O)c(O)c(O)c2)[C@H](OC(=O)c2cc(O)c(O)c(O)c2)[C@@H](OC(=O)c2cc(O)c(O)c(O)c2)[C@@H]1OC(=O)c1cc(O)c(O)c(O)c1)c1cc(O)c(O)c(O)c1 |  | 7.71 µM |  | 33.7 |  | > 100 |  | 52.5 µM |  | 19.2 |  | 24.2 |  |  |  | > 100 |  | > 100 |  | > 100
Cc1cc2c(=O)c3ccccc3[nH]c2c(C(=O)O)c1C |  | > 100 µM |  |  |  |  |  |  |  | 87.5 |  |  |  |  |  | > 100 |  | > 100 |  | > 100
OCC1OC(n2cnc3c(/C=C(/O)c4ccccc4)ncnc32)C(O)C1O (stereo unspecified) |  | > 100 µM |  | > 100 |  |  |  | > 100 µM |  | > 35.7 |  | 79.7 |  | > 100 |  | 24 |  | > 100 |  | > 100
C[N+]1(C)C/C(=C\c2ccncc2)C(=O)/C(=C/c2ccncc2)C1 |  |  |  | 84.7 |  | > 100 |  | > 100 µM |  | > 100 |  | > 100 |  | > 100 |  | 79.5 |  |  |  | > 100
CC(C)Oc1cc(O)c2c(c1)OCC=C2CCC(=O)O |  | > 100 µM |  | > 100 |  | > 100 |  | > 100 µM |  | 89.1 |  | 36.5 |  |  |  | 42 |  | > 100 |  | 43.3
COC(=O)C1=C(C(=O)OC)SC(=C(Cl)C(=S)Sc2ccccc2N)S1 | 10.1 | 25.9 µM | 29.1 | 68.7 | 41.3 | > 100 | 19.3 | 41.5 µM | 27 | > 100 | 19.9 | 49.2 | > 100 | > 100 | > 100 | > 100 | 68.7 | > 100 |  | 
O=C1C2Cc3ccccc3CN2C(=O)N1CCN1CCCC1 (stereo unspecified) |  | > 100 µM |  | > 100 |  |  |  | > 100 µM |  | > 100 |  | > 100 |  | > 100 |  | > 100 |  | > 100 |  | > 100
CCCCCCN(CCCCCC)CC(O)c1ccc2c3c(cccc13)CC2 (stereo unspecified) | 3.7 | 18.1 µM | 12 | 24.9 | 14.1 | 27.6 | 10.8 | 23.9 µM | 3.09 | 17.3 | 4.74 | 17.9 | 14.1 | 32.1 | 2.16 | 6.16 |  |  |  | 
CC(=O)Nc1ccc(S(=O)(=O)NNC(=O)c2cccnc2Nc2ccc(Cl)cc2)cc1 |  |  | 22 | > 100 | 57.5 | > 100 |  |  | 91.5 | > 100 | 5.68 | > 100 | > 100 | > 100 | 9.67 | > 100 | 8.5 | > 100 | 21.3 | > 100
C=C1C(=O)O[C@H]2C[C@@]3(C)[C@H](O)CCC(=C)[C@@H]3[C@@H](OC(C)=O)[C@H]12 |  | 27.6 µM |  | > 52.2 |  | > 83.6 |  | 25.3 µM |  | 27 |  | 26.4 |  | 3.52 |  |  |  | > 23.3 |  | 2.96
COc1ccc(C2CC(n3nnnc3-c3ccccc3)=NN2)cc1 (stereo unspecified) | 10.8 | 41.7 µM | 6.38 | 54.5 | 22.4 | 66.1 | 5.59 | 61.7 µM | 1.39 | 11.7 | 2.12 | 7.81 | 2.66 | 20.3 |  |  | 0.486 | 28.2 | 0.499 | 51.1
O=C1CCC(O)=C1O |  | > 100 µM |  | > 100 |  | > 100 |  | > 100 µM |  |  |  | > 100 |  | > 100 |  | > 100 |  | > 100 |  | > 100
S=c1nc(-c2cccnc2)[nH][nH]1 |  | > 100 µM |  | > 100 |  | > 100 |  | > 100 µM |  |  |  | > 100 |  | > 100 |  | > 100 |  |  |  | > 100
Cc1c(Cl)cccc1NC(=O)CC1C(=O)Nc2ccccc2S1(=O)=O (stereo unspecified) |  | 37.3 µM |  | 38.2 |  |  |  | 41.5 µM |  | 32.1 |  | 26.7 |  | 42.4 |  | 16 |  | 50.1 |  | 47.8
COc1ccc(/C=C2\C(=O)N(C(=O)Cc3ccccc3)N=C2C)cc1OC |  | > 100 µM |  | > 100 |  |  |  | > 100 µM |  | > 100 |  |  |  | > 100 |  | > 100 |  | > 100 |  | > 100
BrC1(Br)C2/C=C\CCCCC21 (stereo unspecified) |  | > 100 µM |  | > 100 |  |  |  | > 100 µM |  |  |  |  |  | > 100 |  | > 100 |  | > 100 |  | > 100
CCOC(=O)[C@H]1Nc2ccc(OC)cc2C2c3ccccc3CC21 (stereo partly specified) |  | > 100 µM |  | > 100 |  |  |  | > 100 µM |  | > 100 |  | > 100 |  | > 100 |  |  |  | > 100 |  | 
Oc1ccccc1-c1nc2c3ccccc3c3ccccc3c2[nH]1 | 9.84 | 22.3 µM | 10.6 | 22.6 | 8.68 | 23.7 | 15 | 28.3 µM | 2.28 | 14.6 | 12.1 | 24.4 | 16.2 | 31.7 | 3.66 | 14.9 |  |  | 4.6 | 16.8
c1cc(CNC2C3CCC(C3)C2c2c[nH]c3ccccc23)cc(CNC2C3CCC(C3)C2c2c[nH]c3ccccc23)c1 (stereo unspecified) | 1.47 | 3.34 µM and 2.88 µM |  |  |  |  |  | 3.39 µM and 3.4 µM |  |  |  | 3.29 |  | 3.45 | 1.6 | 4.21 |  |  |  | > 100
CC(=O)OC1[C@H]2c3cc4c(cc3CN3CCC(=C[C@@H]1O)C23)OCO4 (stereo partly specified) |  | > 100 µM |  | > 100 |  | > 100 |  |  |  | > 100 |  |  |  | > 100 |  | > 100 |  | > 100 |  | > 100
COc1cc(Br)c(C=Nc2cccc3ccc(OS(=O)(=O)c4cccc([N+](=O)[O-])c4)cc23)cc1OC |  | 44.8 µM |  | > 100 |  | > 100 |  | > 100 µM |  | > 100 |  | > 100 |  | > 100 |  |  |  | > 100 |  | > 100
CCOC(=O)C(=O)Nc1c(C(C)C)cccc1C(C)C |  | > 100 µM |  | > 100 |  | > 100 |  |  |  | > 100 |  | > 100 |  | > 100 |  | > 100 |  |  |  | > 100
COc1ccc(CN2c3ccccc3CCc3ccccc32)cc1F | 0.672 | > 100 µM | 0.66 | > 100 | 0.471 | > 100 | 1.9 | > 100 µM | 0.814 | > 100 | 0.522 | 14.2 |  |  |  |  | 0.402 | > 100 | 0.515 | > 100
O=C1NC2(CN3CCC2CC3)C(=O)N1CN(Cc1ccccc1)c1ccccc1 (stereo unspecified) |  | > 100 µM |  | > 100 |  | > 100 |  | > 100 µM |  | > 100 |  | > 100 |  |  |  | 44.7 |  |  |  | 
